Results taken from patent EP0413544A2, “Purine derivatives, process for their preparation, pharmaceutical compositions and intermediates” (Beecham Group p.l.c., priority 1989, dated 1991).
Read-outs that look alike come from different tables or passages of the source.

Assay: Blood concentration of E1 after oral dosing of the compounds to mice (HPLC)
Format: in vivo
Conditions: fasted female Balb/c mice, pooled blood of 3 mice
Procedure: Compounds were administered as single doses of 0.2mmole/kg in 0.1ml of 1% carboxymethyl cellulose by oral gavage to female Balb/c mice weighing 20g. Food was withheld from the mice for 18 hours prior to the start of the experiment. Blood was collected by cardiac puncture using heparinised syringes 15, 60 and 180 mins after dosing. Equal volumes (0.2ml) from 3 mice were pooled at each time point and 0.6ml of ice-cold ethanol was added. Following chilling at -20°C and centrifugation, 0.5ml of supernatant was dried under reduced pressure. The sample was then reconstituted with 0.5ml of 0.4M NH₄OAc (pH 6.0) and analysed by HPLC.

SMILES: Nc1nc(O)c2ncn(OCCCO)c2n1 [Example E1, 9-(3-hydroxyprop-1-oxy)guanine]
- concentration (Expt. 1, 15 min after single oral gavage dose of 0.2mmole/kg in 1% carboxymethyl cellulose, read-out: 9-(3-Hydroxypropoxy)guanine (E1) conc. (µM) in blood at time (min) after dosing: 15): 5.2 µM
- concentration (Expt. 1, 60 min after single oral gavage dose of 0.2mmole/kg in 1% carboxymethyl cellulose, read-out: 9-(3-Hydroxypropoxy)guanine (E1) conc. (µM) in blood at time (min) after dosing: 60): 2 µM
- concentration (Expt. 2, 15 min after single oral gavage dose of 0.2mmole/kg in 1% carboxymethyl cellulose, read-out: 9-(3-Hydroxypropoxy)guanine (E1) conc. (µM) in blood at time (min) after dosing: 15): 11 µM
- concentration at 1 h (mouse, 200 umol/kg, Expt. 2, 60 min after single oral gavage dose of 0.2mmole/kg in 1% carboxymethyl cellulose, read-out: 9-(3-Hydroxypropoxy)guanine (E1) conc. (µM) in blood at time (min) after dosing: 60): 3.3 µM
